Measurements from publication PMC12387383, “Screening and Assessment of Hypoglycemic Active Peptide from Natural Edible Pigment Phycobiliprotein Based on Molecular Docking, Network Pharmacology, Enzyme Inhibition Assay Analyses, and Cell Experiments” (Marine Drugs, 2025).
Peptide text beside a SMILES is read from it.

Legend:
[1] = biological target: T1, DPP-IV (Homo sapiens, UniProt P27487); experiment: DPP-IV inhibitor screening kit (fluorescence); type: biochemical; conditions: mean ± SD, n = 3
T1 construct: purchased Elabscience Biotechnology Co., Ltd. E-BC-D007
Experimental: The hypoglycemic active peptides were synthesized via solid-phase synthesis by Shanghai science peptide Co., Ltd. (Shanghai, China). The purity and molecular weight of the synthesized peptides were confirmed using HPLC-MS. The α-glucosidase inhibitory activity was assessed a modified version of previously reported methods by adding 100 μL of p-NPG (1 mM) after 50 μL of peptide solution (0.125–2.0 mg/mL), and 50 μL of α-glucosidase (1 u/mL) were incubated at 37 °C for 15 min. Absorbance was measured at 405 nm after the reaction was stopped by adding 100 μL of […] after another 30 min of incubation. Similarly, α-amylase inhibitory activity was determined based on established protocols with minor modifications. Briefly, 100 μL of peptide solution (0.125–2.0 mg/mL) was mixed with 100 μL of α-amylase (1 U/mL) and incubated at 37 °C for 10 min. Then, 200 μL of pretreated soluble starch solution (2%, denatured at 95 °C for 8 min) was added, and the mixture was further incubated at 37 °C for 20 min. The reaction was stopped by adding 200 μL of DNS reagent (1% DNS; 12% sodium potassium tartrate in 0.4 M Na2CO3), followed by boiling at 100 °C for 15 min. After cooling, 200 μL of each reaction mixture was transferred to a 96-well plate, and absorbance was measured at 540 nm. DPP-IV inhibitory activity was evaluated using a DPP-IV inhibitor screening kit (Elabscience) following the manufacturer’s instructions with slight modifications. Peptide solutions were prepared at gradient concentrations (0.125, 0.25, 0.5, 1, 1.5, 2, 4, and 10 mg/mL). In a 96-well plate, 20 μL of enzyme solution and 30 μL of peptide sample were added to each well, mixed briefly, and incubated at 37 °C for 10 min. Then, 170 μL of reaction working solution was added, followed by a second incubation at 37 °C for 30 min. Fluorescence intensity was measured at an excitation wavelength of 360 nm and an emission wavelength of 460 nm. The IC50 values were determined by fitting dose–response curves using nonlinear regression analysis with a variable slope in GraphPad Prism 9. All IC50 results are expressed as mean ± SD based on three independent experiments.

[2] = tested on: IR-HepG2 cells; experiment: Glucose consumption in IR-HepG2 cells; type: cell-based; conditions: 2 mmol/L, IR-HepG2, compared to baseline, positive control
Experimental: HepG2 cells were maintained in Dulbecco’s Modified Eagle Medium (DMEM) supplemented with 10% fetal bovine serum and 1% penicillin–streptomycin under controlled conditions at 37 °C in a humidified atmosphere containing 5% CO2 for 24 h.
(§1) The IR-HepG2 cellular model was established as described in Section 3.6. […] Cell viability was evaluated in all groups to determine appropriate peptide concentrations and incubation times based on the criteria of non-cytotoxicity and maximal glucose consumption.
(§2) Glucose consumption was measured using a commercial glucose assay kit according to the manufacturer’s protocol. Intracellular glycogen content was quantified with a glycogen detection kit, while hexokinase (HK) and pyruvate kinase (PK) enzyme activities were determined using specific assay kits, following the provided instructions.

[3] = tested on: IR-HepG2 cells; experiment: Intracellular glycogen content in IR-HepG2 cells; type: cell-based; conditions: GR-5, SA-6, VF-6 at 2 mmol/L, IR-7 at 1 mmol/L
Experimental: as §1, §2

[4] = tested on: hexokinase (HK) in IR-HepG2 cells; experiment: Hexokinase activity in IR-HepG2 cells; type: cell-based; conditions: IR-HepG2, vs model control; GR-5, SA-6, VF-6 at 2 mmol/L, IR-7 at 1 mmol/L
Experimental: as §1, §2

[5] = tested on: pyruvate kinase (PK) in IR-HepG2 cells; experiment: Pyruvate kinase activity in IR-HepG2 cells; type: cell-based; conditions: IR-HepG2, vs model control; GR-5, SA-6, VF-6 at 2 mmol/L, IR-7 at 1 mmol/L
Experimental: as §1, §2

[6] = biological target: T2, α-amylase (Sus scrofa, UniProt P00690); conditions: literature value; cited from earlier work
T2 sequence (P00690 16-511): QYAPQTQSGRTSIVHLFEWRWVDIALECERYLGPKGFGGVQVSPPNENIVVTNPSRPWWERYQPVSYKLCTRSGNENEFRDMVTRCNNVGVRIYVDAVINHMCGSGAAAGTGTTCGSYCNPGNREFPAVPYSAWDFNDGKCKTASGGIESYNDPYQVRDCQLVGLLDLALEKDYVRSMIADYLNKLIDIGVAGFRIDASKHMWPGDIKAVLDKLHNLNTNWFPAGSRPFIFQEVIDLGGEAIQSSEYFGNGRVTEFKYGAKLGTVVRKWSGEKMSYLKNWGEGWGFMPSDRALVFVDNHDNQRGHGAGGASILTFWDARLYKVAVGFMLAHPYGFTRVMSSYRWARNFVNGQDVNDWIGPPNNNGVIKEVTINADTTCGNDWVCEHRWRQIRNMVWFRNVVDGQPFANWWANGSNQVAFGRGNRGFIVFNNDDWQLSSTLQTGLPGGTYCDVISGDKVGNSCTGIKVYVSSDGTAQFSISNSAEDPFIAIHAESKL

T1 sequence (P27487 whole entry, species assumed): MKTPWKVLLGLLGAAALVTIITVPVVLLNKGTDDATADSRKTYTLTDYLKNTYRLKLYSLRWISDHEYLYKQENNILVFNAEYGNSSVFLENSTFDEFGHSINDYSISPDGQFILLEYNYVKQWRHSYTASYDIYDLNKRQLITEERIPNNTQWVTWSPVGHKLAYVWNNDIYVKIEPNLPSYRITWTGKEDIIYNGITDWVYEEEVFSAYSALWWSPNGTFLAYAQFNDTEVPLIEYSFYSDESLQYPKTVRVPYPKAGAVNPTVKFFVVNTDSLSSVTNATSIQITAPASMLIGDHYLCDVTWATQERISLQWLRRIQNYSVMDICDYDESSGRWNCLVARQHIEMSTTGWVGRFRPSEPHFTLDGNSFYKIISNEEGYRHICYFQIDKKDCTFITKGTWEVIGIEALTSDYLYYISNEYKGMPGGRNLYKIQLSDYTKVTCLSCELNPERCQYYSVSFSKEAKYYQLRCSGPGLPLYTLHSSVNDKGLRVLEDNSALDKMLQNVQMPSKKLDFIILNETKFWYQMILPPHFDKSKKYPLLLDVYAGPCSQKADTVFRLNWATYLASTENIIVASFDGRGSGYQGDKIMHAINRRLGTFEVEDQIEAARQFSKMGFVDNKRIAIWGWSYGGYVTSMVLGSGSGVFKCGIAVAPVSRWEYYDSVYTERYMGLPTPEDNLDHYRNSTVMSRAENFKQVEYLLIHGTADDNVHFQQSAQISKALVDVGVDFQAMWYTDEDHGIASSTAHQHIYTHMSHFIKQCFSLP

`CC(C)C[C@H](NC(=O)[C@H](Cc1ccc(O)cc1)NC(=O)[C@H](Cc1ccc(O)cc1)NC(=O)CN)C(=O)N[C@@H](CCCNC(=N)N)C(=O)O` [GR-5, Gly-Tyr-Tyr-Leu-Arg] (H-GYYLR-OH; N-terminus and C-terminus assumed) gave an IC50 [1] of 6.97 mM.

`CC[C@H](C)[C@H](N)C(=O)N[C@@H](C)C(=O)N[C@@H](CO)C(=O)N[C@@H](Cc1ccc(O)cc1)C(=O)N[C@@H](Cc1ccccc1)C(=O)N[C@@H](CC(=O)O)C(=O)N[C@@H](CCCNC(=N)N)C(=O)O` [IR-7, Ile-Ala-Ser-Tyr-Phe-Asp-Arg] (H-IASYFDR-OH; N-terminus and C-terminus assumed) showed an IC50 [1] of 1.04 mM.

`C[C@H](NC(=O)[C@H](CCCNC(=N)N)NC(=O)[C@H](CC(=O)O)NC(=O)[C@H](Cc1ccccc1)NC(=O)[C@H](Cc1ccc(O)cc1)NC(=O)[C@@H](N)CO)C(=O)O` [SA-6, Ser-Tyr-Phe-Asp-Arg-Ala] (H-SYFDRA-OH; N-terminus and C-terminus assumed) showed an IC50 [1] of 11 mM.

For `CC(C)[C@H](N)C(=O)N[C@@H](C)C(=O)N[C@@H](Cc1ccccc1)C(=O)NCC(=O)N[C@@H](CCCNC(=N)N)C(=O)N[C@@H](Cc1ccccc1)C(=O)O` [VF-6, Val-Ala-Phe-Gly-Arg-Phe] (H-VAFGRF-OH; N-terminus and C-terminus assumed), the IC50 [1] was 1.36 mM.

For `CN(C)C(=N)N=C(N)N` [metformin], the “increase in glucose consumption” value [2] was 105%, the “increase in glycogen content” value [3] was 24.2% and the “increase in HK activity” value [4] was 54.9%. The “increase in PK activity” value [5] was 21.1%.

For FPSPPLVA, the “α-amylase IC50” value [6] is given as 920 ± 270 µg/mL.

In the case of GPPMPPPPLP, the “α-amylase IC50” value [6] is given as 2020 ± 200 µg/mL.
